# Values of other authors in US20020127259A1, “Rumen by-pass delivery system” (priority 1998, published 2002).
# Settings: given by Seghers in 1990
row,relative rate of phospholipid hydration [%],Substance
1,16,phosphatidylethanolamine [P-ethanolamine]
2,8.5,phosphatidic acid
3,100,Phosphatidylcholine
4,44,phosphatidylinositol
